One block for each molecule: values may come before it.
Tests used:
[1] = target: Cholecystokinin receptor type A (Homo sapiens) (UniProt P32238); experiment: Selectivity interaction (Panel of non-epigenetic targets (kinases, GPCRs, ion channels, and transporters, Eurofins) ) EUB0000271b CCKAR; conditions: at 1 µM
[2] = target: Activin receptor type-2B (Homo sapiens) (UniProt Q13705); conditions: at 10 µM
[3] = target: Maternal embryonic leucine zipper kinase (Homo sapiens) (UniProt Q14680); conditions: at 10 µM
[4] = target: STE20/SPS1-related proline-alanine-rich protein kinase (Homo sapiens) (UniProt Q9UEW8); experiment: Selectivity interaction (KinomeScan (DiscoverX)) EUB0001079a STK39; conditions: at 1 µM
[5] = target: RAC-gamma serine/threonine-protein kinase (Homo sapiens, UniProt Q9Y243); experiment: Selectivity interaction (SelectScreen profiling (Invitrogen)) EUB0000607a AKT3; conditions: at 2 µM
Sequence of RAC-gamma serine/threonine-protein kinase (Q9Y243 whole entry): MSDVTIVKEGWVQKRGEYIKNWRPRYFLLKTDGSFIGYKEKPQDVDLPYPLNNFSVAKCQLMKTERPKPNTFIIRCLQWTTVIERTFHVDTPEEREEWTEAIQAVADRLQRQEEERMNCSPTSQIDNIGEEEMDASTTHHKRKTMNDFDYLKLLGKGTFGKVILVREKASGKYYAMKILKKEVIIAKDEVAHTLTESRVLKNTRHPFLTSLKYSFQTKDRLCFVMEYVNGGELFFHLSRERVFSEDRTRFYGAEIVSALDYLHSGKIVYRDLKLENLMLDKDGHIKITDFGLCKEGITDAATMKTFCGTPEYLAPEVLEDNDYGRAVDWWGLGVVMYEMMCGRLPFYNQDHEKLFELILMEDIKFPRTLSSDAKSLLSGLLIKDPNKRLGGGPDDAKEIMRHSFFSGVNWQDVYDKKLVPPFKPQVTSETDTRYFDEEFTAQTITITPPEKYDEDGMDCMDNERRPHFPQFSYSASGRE

[6] = target: Serine/threonine-protein kinase PAK 6 (Homo sapiens) (UniProt Q9NQU5); experiment: Selectivity interaction (KinomeScan (DiscoverX)) EUB0000607a PAK6; conditions: at 10 µM
Sequence of Serine/threonine-protein kinase PAK 6 (Homo sapiens) (Q9NQU5 whole entry, looked up): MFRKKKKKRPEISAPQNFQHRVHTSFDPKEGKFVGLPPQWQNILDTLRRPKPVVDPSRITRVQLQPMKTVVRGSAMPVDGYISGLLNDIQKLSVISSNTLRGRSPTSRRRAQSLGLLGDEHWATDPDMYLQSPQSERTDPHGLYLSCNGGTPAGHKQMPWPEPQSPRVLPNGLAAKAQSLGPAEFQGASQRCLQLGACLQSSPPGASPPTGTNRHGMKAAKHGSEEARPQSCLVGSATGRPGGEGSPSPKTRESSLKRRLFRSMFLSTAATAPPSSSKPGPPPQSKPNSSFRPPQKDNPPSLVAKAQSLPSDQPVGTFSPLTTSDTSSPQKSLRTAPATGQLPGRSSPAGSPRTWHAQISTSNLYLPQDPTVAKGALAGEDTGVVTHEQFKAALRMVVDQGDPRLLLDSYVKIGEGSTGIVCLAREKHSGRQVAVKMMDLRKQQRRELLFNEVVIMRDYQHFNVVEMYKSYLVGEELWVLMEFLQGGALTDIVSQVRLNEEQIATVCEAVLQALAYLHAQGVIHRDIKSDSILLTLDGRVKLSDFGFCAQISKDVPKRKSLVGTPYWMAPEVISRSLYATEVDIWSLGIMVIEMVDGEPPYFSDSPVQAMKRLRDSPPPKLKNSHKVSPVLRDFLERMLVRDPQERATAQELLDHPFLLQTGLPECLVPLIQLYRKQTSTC

[7] = target: High affinity nerve growth factor receptor (Homo sapiens, UniProt P04629); experiment: Selectivity interaction (KinomeScan (DiscoverX)) EUB0001619a NTRK1; conditions: at 1 µM
Sequence of High affinity nerve growth factor receptor (P04629 33-796 limits assumed): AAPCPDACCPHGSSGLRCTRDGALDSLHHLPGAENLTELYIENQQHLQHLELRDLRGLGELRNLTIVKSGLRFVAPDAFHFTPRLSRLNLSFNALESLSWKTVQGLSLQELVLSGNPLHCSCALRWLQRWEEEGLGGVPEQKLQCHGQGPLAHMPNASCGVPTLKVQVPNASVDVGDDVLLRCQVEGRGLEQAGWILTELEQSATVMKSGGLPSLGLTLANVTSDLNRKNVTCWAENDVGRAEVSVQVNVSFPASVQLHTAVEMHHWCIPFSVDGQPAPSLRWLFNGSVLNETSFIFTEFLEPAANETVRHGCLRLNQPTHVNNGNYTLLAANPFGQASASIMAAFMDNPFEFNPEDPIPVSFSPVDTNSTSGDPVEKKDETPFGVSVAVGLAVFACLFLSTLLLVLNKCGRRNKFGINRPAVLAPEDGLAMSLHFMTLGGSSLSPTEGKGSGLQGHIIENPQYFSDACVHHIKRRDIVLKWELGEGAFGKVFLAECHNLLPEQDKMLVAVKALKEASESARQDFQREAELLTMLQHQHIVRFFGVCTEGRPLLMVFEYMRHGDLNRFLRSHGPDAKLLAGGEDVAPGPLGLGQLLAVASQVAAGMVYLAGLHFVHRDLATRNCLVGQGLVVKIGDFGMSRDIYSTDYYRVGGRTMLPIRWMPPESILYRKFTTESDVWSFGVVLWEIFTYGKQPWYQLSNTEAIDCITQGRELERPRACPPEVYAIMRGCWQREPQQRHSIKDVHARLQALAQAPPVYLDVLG

[8] = target: T1, Phosphatidylinositol 5-phosphate 4-kinase type-2 gamma (Homo sapiens) (UniProt Q8TBX8); experiment: Selectivity interaction (KinomeScan (DiscoverX)) EUB0001619a PIP4K2C; conditions: at 1 µM
T1 sequence (whole entry): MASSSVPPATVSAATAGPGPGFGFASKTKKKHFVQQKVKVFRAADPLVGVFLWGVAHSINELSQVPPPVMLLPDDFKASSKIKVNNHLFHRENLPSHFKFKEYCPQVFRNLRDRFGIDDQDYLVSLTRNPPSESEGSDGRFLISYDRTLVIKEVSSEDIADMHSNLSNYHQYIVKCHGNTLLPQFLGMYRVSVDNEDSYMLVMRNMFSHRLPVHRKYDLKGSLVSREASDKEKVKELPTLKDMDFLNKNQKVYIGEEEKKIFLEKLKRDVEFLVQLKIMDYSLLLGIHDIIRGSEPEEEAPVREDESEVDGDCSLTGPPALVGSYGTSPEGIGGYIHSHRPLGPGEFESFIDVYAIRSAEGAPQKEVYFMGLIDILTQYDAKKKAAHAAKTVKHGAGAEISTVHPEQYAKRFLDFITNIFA

[9] = target: MAP/microtubule affinity-regulating kinase 3 (Homo sapiens) (UniProt P27448); experiment: Selectivity interaction (ActivX KiNativ screen (kinase selectivity in THP-1 cell lysates)) EUB0000639a MARK3; assay type: subcellular; conditions: lysate, at 0.2 µM
[10] = target: Serine/threonine-protein kinase PAK 6 (Homo sapiens) (UniProt Q9NQU5); experiment: Selectivity interaction (Kinase panel (Invitrogen)) EUB0000639a PAK6; conditions: at 200 nM
[11] = target: Ribosomal protein S6 kinase alpha-3 (Homo sapiens, UniProt P51812); experiment: Selectivity interaction (ActivX KiNativ screen (kinase selectivity in THP-1 cell lysates)) EUB0000639a RPS6KA3; assay type: subcellular; conditions: lysate, at 5 µM
Sequence of Ribosomal protein S6 kinase alpha-3 (P51812 whole entry): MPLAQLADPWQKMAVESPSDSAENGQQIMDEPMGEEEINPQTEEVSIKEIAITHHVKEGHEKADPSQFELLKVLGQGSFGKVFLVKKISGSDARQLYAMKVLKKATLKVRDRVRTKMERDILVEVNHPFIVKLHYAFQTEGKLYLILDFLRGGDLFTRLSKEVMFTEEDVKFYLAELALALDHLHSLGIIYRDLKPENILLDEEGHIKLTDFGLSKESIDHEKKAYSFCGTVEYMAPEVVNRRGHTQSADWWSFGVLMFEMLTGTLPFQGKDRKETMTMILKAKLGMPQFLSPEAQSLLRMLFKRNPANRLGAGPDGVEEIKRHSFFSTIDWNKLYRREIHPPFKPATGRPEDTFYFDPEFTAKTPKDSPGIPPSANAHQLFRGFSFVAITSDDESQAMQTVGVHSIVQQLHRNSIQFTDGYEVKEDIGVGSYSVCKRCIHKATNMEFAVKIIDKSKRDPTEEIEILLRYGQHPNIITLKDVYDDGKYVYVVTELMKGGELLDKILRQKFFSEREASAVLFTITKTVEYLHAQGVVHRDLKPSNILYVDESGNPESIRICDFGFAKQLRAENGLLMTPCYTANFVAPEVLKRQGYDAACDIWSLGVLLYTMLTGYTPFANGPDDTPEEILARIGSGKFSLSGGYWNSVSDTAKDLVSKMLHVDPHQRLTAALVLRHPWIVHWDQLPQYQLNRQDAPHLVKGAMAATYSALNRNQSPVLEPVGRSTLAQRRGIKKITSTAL

[12] = target: Protein polybromo-1 (Homo sapiens) (UniProt Q86U86); experiment: Selectivity interaction (Bromodomain panel (DSF asssay)) EUB0000270b PBRM1
Sequence of Protein polybromo-1 (Homo sapiens) (Q86U86 whole entry): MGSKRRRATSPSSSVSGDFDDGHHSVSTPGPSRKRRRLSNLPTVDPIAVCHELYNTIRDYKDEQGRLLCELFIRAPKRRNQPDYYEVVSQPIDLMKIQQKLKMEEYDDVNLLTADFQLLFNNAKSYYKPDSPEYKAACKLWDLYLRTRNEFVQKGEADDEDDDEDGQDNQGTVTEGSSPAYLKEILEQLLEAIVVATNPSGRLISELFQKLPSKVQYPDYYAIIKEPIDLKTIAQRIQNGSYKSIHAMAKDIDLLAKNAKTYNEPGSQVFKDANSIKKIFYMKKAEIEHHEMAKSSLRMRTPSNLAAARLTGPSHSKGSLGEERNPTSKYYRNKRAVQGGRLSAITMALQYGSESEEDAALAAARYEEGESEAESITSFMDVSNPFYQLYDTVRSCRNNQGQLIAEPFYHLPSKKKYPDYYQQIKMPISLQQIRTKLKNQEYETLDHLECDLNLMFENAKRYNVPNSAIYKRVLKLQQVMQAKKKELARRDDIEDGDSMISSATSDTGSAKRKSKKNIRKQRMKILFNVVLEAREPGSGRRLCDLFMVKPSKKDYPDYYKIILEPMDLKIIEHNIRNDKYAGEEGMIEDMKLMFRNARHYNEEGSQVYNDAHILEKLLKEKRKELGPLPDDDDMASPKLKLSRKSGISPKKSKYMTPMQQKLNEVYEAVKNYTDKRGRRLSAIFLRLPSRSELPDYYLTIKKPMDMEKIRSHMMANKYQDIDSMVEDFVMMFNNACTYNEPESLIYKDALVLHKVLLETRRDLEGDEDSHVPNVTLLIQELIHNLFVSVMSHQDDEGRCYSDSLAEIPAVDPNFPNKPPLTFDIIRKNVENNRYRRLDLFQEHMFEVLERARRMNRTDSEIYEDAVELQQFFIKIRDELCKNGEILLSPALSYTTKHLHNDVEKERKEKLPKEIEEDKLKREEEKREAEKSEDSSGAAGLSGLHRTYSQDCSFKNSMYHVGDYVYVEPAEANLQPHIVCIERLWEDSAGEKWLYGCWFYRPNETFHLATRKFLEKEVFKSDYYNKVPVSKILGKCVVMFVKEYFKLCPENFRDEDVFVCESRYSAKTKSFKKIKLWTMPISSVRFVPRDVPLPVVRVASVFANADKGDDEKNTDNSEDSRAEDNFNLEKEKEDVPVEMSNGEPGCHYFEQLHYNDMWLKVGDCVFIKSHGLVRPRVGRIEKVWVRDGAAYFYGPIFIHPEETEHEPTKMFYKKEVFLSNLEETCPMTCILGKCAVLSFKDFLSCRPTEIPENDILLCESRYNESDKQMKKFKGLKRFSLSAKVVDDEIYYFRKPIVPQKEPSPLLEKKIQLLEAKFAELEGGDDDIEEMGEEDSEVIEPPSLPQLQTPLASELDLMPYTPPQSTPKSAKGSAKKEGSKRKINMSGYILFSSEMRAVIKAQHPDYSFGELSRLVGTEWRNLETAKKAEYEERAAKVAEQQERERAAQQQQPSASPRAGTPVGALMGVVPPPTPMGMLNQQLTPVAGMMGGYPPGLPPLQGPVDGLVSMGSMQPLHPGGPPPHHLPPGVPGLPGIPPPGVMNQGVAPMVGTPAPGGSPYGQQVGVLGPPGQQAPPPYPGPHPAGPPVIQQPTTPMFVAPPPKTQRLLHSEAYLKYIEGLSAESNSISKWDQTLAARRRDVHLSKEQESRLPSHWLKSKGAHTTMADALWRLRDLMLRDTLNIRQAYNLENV

[13] = target: SWI/SNF-related matrix-associated actin-dependent regulator of chromatin subfamily A member 2 (Homo sapiens, UniProt P51531); experiment: Selectivity interaction (Bromodomain panel (DSF asssay)) EUB0000270b SMARCA2
[14] = target: Phosphatidylinositol 4,5-bisphosphate 3-kinase catalytic subunit gamma isoform (Homo sapiens) (UniProt P48736); experiment: Selectivity interaction (Panel of kinases, GPCRs, ion channels and transporters (enzymatic assay)) EUB0000223bCl PIK3CG
[15] = target: T2, Serine/threonine-protein kinase greatwall (Homo sapiens) (UniProt Q96GX5); experiment: Selectivity interaction (LanthaScreen Eu Kinase Binding Assay) EUB0001632a MASTL; conditions: at 10 µM
T2 sequence (whole entry): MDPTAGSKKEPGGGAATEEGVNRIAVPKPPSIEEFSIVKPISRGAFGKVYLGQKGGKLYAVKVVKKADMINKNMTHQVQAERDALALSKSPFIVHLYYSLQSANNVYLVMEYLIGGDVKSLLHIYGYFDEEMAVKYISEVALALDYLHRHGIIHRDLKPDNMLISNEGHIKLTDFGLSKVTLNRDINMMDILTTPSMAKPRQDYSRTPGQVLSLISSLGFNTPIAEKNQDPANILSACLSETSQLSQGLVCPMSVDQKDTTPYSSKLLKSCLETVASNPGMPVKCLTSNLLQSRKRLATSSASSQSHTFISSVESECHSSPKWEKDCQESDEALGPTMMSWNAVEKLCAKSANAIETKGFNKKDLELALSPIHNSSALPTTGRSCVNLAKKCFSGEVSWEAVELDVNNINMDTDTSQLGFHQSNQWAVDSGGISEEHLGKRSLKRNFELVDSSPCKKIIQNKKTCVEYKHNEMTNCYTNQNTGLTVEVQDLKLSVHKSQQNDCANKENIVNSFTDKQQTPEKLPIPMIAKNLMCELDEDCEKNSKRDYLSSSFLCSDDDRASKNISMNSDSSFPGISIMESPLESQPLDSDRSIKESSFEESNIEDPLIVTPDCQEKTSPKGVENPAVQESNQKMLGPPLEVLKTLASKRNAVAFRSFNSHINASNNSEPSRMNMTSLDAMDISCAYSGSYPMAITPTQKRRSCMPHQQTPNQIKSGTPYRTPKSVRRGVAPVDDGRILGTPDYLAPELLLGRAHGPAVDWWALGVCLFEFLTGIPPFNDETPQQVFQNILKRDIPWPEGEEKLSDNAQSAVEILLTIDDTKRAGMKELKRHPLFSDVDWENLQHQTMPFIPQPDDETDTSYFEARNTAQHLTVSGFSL

Sequence of Cholecystokinin receptor type A (Homo sapiens) (P32238 whole entry): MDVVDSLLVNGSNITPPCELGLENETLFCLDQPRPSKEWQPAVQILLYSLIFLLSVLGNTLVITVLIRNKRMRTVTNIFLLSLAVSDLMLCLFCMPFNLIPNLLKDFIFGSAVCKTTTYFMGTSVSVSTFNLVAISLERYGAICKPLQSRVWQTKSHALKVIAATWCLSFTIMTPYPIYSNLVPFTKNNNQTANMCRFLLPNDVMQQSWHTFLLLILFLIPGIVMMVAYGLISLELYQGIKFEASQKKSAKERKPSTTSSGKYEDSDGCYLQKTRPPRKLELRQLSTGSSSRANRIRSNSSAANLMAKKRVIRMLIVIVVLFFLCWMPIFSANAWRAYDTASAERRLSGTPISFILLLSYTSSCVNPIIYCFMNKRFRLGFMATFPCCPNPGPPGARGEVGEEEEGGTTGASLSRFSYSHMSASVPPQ

SMILES: Cc1cc(C)cc([C@@H]2c3cc(C)ccc3NC(=O)CN2C(=O)c2ccc(Br)s2)c1
% of inhibition [1]: 1%

% of control [2]: 100% | % of control [3]: 100%
SMILES: CCN(CC)CCCCNc1ncc2cc(-c3cc(OC)cc(OC)c3)c(NC(=O)NC(C)(C)C)nc2n1

SMILES: Nc1cnc(N2CCc3cc(S(=O)(=O)Nc4c(F)cc(Cl)cc4F)cc(N4CCCC4=O)c32)nc1 [TP-020n]
% of control [4]: 100%

SMILES: CNC(=O)Nc1ccc(-c2nc(N3CC4CCC(C3)O4)c3cnn(C4CCC5(CC4)OCCO5)c3n2)cc1
% of inhibition [5]: 2% | % of control [6]: 100%

SMILES: N#Cc1cccc(-c2c[nH]c3ncnc(N4CCOCC4)c23)c1
% of control [7]: 88% | % of control [8]: 21%

% of inhibition [9]: 2.7% | % of inhibition [10]: 5.16% | % of inhibition [11]: -3%
SMILES: CC[C@@H]1[C@H](F)C(=O)N[C@@H]1COc1nccc2cc(C(N)=O)c(OC)cc12 [ZIMLOVISERTIB]

dTM [12]: -1.91 K | dTM [13]: -0.5 K
SMILES: Cc1cc(CN)cc(C)c1-c1ncn(C)c1-c1cncn1C

SMILES: COc1cc(C(=O)N2CC[C@@H](O)[C@@H](N)C2)cc2nc(-c3cc4ccccc4n3CC3CC3)n(C)c12
pXC50 [14]: < 4.5 M

% of inhibition [15]: -42%
SMILES: Cn1cc(-n2cnc3c(NCc4nc5cc(Cl)c(Cl)cc5[nH]4)nc(N4CCOCC4)nc32)cn1

— ChEMBL document CHEMBL5465560, “Selectivity Literature for EUbOPEN Chemogenomic Library” (2024)
